Results reported in ChEMBL document CHEMBL5212743, “Selectivity Literature for EUbOPEN Chemogenomics Library wave 3” (2023).

What was measured:
[1] = biological target: 5-hydroxytryptamine receptor 2B (Homo sapiens, UniProt P41595); experiment: Selectivity interaction (GPCR panel (PDSP screen)) EUB0000336a HTR2B; conditions: at 1 µM
[2] = biological target: Epidermal growth factor receptor (Homo sapiens, UniProt P00533); experiment: Selectivity interaction (KinomeScan (DiscoverX)) EUB0000336a EGFR; conditions: at 1 µM
[3] = biological target: Tyrosine-protein kinase receptor Tie-1 (Homo sapiens) (UniProt P35590); experiment: Selectivity interaction (KinomeScan (DiscoverX)) EUB0000336a TIE1; conditions: at 1 µM
[4] = biological target: Phosphatidylinositol 4,5-bisphosphate 3-kinase catalytic subunit alpha isoform (Homo sapiens, UniProt P42336); experiment: Selectivity interaction (KinomeScan (DiscoverX)) EUB0000336a PIK3CA; conditions: at 1 µM
[5] = biological target: Serine/threonine-protein kinase Nek5 (Homo sapiens) (UniProt Q6P3R8); experiment: Selectivity interaction (KinomeScan (DiscoverX)) EUB0000336a NEK5; conditions: at 1 µM
[6] = biological target: T1, Phosphatidylinositol 5-phosphate 4-kinase type-2 gamma (Homo sapiens) (UniProt Q8TBX8); experiment: Selectivity interaction (KinomeScan (DiscoverX)) EUB0000336a PIP4K2C; conditions: at 1 µM
T1 sequence (whole entry): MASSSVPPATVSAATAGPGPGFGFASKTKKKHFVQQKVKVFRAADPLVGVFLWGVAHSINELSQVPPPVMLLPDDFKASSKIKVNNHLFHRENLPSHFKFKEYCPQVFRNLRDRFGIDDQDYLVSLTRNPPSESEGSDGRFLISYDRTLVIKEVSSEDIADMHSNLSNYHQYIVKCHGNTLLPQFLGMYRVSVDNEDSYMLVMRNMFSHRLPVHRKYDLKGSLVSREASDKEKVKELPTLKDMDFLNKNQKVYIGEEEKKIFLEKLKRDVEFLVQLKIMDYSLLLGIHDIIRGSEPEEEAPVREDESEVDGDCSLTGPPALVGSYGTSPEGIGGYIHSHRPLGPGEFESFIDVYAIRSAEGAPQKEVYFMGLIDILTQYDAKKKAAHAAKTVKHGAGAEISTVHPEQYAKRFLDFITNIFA

[7] = biological target: Serine/threonine-protein kinase DCLK2 (Homo sapiens) (UniProt Q8N568); experiment: Selectivity interaction (KinomeScan (Ambit)) EUB0000687a DCLK2; conditions: at 10 µM
[8] = biological target: Serine/threonine-protein kinase PLK4 (Homo sapiens) (UniProt O00444); experiment: Selectivity interaction (KinomeScan (Ambit)) EUB0000687a PLK4; conditions: at 10 µM
[9] = biological target: Phosphatidylinositol 4,5-bisphosphate 3-kinase catalytic subunit beta isoform (Homo sapiens) (UniProt P42338); experiment: Selectivity interaction (KinomeScan (DiscoverX)) EUB0000014b PIK3CB; conditions: at 1 µM
[10] = biological target: Casein kinase I isoform epsilon (Homo sapiens, UniProt P49674); experiment: Selectivity interaction (Radioisotope filter binding assay (Reaction Biology)) EUB0000696a CSNK1E; conditions: at 1 µM
[11] = biological target: Serine/threonine-protein kinase 38-like (Homo sapiens, UniProt Q9Y2H1); experiment: Selectivity interaction (KinomeScan (DiscoverX)) EUB0000317b STK38L; conditions: at 1 µM
[12] = biological target: 5-hydroxytryptamine receptor 7 (Homo sapiens, UniProt P34969); experiment: Selectivity interaction (GPCR panel (PDSP screen)) EUB0000317b HTR7; conditions: at 10 µM
[13] = biological target: SRSF protein kinase 2 (Homo sapiens) (UniProt P78362); experiment: Selectivity interaction (KinomeScan (DiscoverX)) EUB0000315b SRPK2; conditions: at 1 µM
[14] = system: Receptor-type tyrosine-protein kinase FLT3 (Homo sapiens), P36888 [UNDEFINED MUTATION]; experiment: Selectivity interaction (KinomeScan (DiscoverX)) EUB0000315b FLT3; conditions: at 1 µM
[15] = biological target: MAP/microtubule affinity-regulating kinase 3 (Homo sapiens) (UniProt P27448); experiment: Selectivity interaction (KinomeScan (DiscoverX)) EUB0000315b MARK3; conditions: at 1 µM
[16] = biological target: Serine/threonine-protein kinase 17A (Homo sapiens) (UniProt Q9UEE5); experiment: Selectivity interaction (Kinase panel (ProQinase)) EUB0000631a STK17A; conditions: at 1 µM
[17] = biological target: T2, Mitogen-activated protein kinase 15 (Homo sapiens) (UniProt Q8TD08); experiment: Selectivity interaction (Dundee panel (140 kinases and 19 lipid kinases)) EUB0000631a MAPK15; conditions: at 1 µM
T2 sequence (whole entry): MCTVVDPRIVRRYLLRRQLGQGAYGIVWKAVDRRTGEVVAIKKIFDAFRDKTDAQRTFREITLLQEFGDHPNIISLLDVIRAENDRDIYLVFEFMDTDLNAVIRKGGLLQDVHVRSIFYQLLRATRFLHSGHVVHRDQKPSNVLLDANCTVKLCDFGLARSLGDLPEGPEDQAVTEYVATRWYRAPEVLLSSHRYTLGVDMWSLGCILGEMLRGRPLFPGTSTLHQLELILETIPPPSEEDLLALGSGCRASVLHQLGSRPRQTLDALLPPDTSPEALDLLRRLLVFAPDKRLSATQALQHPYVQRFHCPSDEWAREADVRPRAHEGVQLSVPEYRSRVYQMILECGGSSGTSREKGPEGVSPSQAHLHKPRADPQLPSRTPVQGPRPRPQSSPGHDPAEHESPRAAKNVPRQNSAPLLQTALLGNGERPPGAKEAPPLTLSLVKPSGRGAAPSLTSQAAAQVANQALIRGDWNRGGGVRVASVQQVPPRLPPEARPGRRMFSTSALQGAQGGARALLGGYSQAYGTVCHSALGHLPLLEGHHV

[18] = biological target: Mitogen-activated protein kinase kinase kinase 7 (Homo sapiens) (UniProt O43318); experiment: Selectivity interaction (Dundee panel (140 kinases and 19 lipid kinases)) EUB0000631a MAP3K7; conditions: at 1 µM
[19] = biological target: Substance-K receptor (Homo sapiens) (UniProt P21452); experiment: Selectivity interaction (CEREP panel (ligand receptors, ion channels, transporters)) EUB0000330a TACR2; conditions: at 1 µM
CREB-binding protein = CREB-binding protein (Homo sapiens, UniProt Q92793); experiment: Selectivity interaction (Bromodomain panel (DSF assay)) EUB0000330a CREBBP
[20] = biological target: 3',5'-cyclic-AMP phosphodiesterase 4D (Homo sapiens) (UniProt Q08499); experiment: Selectivity interaction (Eurofins CEREP Diversity Profiling (71 receptors, ion channels, and 25 other enzymes)) EUB0000231c PDE4D; conditions: at 10 µM
[21] = biological target: T3, Adenosine receptor A1 (Homo sapiens) (UniProt P30542); experiment: Selectivity interaction (Eurofins CEREP Diversity Profiling (71 receptors, ion channels, and 25 other enzymes)) EUB0000231c ADORA1; conditions: at 10 µM
T3 sequence (whole entry): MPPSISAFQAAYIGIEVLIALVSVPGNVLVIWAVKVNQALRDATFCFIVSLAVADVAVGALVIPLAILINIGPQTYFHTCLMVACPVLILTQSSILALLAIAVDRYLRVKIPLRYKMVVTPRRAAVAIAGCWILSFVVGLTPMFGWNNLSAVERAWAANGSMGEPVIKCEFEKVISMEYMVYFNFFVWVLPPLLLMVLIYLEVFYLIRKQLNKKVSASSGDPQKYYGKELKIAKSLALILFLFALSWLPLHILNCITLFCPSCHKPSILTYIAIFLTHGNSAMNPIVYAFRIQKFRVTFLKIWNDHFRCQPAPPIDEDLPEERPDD

[22] = biological target: T4, Gamma-aminobutyric acid receptor subunit alpha-1 (Homo sapiens) (UniProt P14867); experiment: Selectivity interaction (Eurofins CEREP Diversity Profiling (71 receptors, ion channels, and 25 other enzymes)) EUB0000231c GABRA1; conditions: at 10 µM
T4 sequence (whole entry): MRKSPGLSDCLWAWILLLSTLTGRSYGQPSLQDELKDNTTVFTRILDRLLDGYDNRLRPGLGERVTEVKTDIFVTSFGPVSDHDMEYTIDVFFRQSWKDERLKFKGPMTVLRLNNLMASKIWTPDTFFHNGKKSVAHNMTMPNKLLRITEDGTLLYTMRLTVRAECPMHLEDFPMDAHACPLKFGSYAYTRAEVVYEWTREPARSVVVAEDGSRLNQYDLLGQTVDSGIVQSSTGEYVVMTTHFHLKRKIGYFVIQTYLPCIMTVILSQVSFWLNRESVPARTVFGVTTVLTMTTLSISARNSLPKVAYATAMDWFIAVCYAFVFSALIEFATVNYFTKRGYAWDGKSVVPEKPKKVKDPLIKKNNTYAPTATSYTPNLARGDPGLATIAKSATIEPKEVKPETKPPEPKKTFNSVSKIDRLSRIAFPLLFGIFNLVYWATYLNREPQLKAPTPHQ

[23] = biological target: cGMP-inhibited 3',5'-cyclic phosphodiesterase 3A (Homo sapiens, UniProt Q14432); experiment: Selectivity interaction (Eurofins CEREP Diversity Profiling (71 receptors, ion channels, and 25 other enzymes)) EUB0000231c PDE3A; conditions: at 10 µM
[24] = biological target: cGMP-dependent 3',5'-cyclic phosphodiesterase (Homo sapiens) (UniProt O00408); experiment: Selectivity interaction (Eurofins CEREP Diversity Profiling (71 receptors, ion channels, and 25 other enzymes)) EUB0000231c PDE2A; conditions: at 10 µM
[25] = biological target: Receptor-type tyrosine-protein kinase FLT3 (Homo sapiens) (UniProt P36888); experiment: Selectivity interaction (Kinase panel) EUB0000214b FLT3; conditions: at […]
Sequence of Receptor-type tyrosine-protein kinase FLT3 (Homo sapiens) (P36888 whole entry): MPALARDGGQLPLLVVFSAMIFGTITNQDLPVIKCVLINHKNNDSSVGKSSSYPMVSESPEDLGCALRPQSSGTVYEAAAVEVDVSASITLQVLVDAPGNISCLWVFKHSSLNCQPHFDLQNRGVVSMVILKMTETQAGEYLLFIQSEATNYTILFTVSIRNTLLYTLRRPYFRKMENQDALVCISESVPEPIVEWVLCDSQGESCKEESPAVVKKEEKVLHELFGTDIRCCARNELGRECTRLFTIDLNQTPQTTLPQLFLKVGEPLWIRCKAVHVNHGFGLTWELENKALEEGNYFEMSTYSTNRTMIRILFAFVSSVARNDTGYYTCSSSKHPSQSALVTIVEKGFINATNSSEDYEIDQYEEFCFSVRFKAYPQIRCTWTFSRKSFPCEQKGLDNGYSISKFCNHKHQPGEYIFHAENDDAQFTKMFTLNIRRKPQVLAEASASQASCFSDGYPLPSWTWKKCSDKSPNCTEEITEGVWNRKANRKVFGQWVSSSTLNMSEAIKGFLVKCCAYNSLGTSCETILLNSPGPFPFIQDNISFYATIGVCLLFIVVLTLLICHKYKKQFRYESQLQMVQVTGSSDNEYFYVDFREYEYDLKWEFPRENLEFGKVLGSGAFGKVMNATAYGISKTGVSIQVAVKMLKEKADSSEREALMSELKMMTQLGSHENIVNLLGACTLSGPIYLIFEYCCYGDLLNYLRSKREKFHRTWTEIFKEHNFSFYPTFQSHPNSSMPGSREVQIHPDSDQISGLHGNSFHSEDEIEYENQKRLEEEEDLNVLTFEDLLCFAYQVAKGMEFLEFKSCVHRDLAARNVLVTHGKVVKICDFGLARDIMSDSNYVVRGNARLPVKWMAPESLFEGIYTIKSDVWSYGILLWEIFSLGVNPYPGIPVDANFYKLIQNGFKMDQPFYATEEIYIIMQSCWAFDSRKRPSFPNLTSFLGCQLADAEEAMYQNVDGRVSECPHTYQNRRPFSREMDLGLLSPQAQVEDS

Sequence of cGMP-inhibited 3',5'-cyclic phosphodiesterase 3A (Q14432 whole entry): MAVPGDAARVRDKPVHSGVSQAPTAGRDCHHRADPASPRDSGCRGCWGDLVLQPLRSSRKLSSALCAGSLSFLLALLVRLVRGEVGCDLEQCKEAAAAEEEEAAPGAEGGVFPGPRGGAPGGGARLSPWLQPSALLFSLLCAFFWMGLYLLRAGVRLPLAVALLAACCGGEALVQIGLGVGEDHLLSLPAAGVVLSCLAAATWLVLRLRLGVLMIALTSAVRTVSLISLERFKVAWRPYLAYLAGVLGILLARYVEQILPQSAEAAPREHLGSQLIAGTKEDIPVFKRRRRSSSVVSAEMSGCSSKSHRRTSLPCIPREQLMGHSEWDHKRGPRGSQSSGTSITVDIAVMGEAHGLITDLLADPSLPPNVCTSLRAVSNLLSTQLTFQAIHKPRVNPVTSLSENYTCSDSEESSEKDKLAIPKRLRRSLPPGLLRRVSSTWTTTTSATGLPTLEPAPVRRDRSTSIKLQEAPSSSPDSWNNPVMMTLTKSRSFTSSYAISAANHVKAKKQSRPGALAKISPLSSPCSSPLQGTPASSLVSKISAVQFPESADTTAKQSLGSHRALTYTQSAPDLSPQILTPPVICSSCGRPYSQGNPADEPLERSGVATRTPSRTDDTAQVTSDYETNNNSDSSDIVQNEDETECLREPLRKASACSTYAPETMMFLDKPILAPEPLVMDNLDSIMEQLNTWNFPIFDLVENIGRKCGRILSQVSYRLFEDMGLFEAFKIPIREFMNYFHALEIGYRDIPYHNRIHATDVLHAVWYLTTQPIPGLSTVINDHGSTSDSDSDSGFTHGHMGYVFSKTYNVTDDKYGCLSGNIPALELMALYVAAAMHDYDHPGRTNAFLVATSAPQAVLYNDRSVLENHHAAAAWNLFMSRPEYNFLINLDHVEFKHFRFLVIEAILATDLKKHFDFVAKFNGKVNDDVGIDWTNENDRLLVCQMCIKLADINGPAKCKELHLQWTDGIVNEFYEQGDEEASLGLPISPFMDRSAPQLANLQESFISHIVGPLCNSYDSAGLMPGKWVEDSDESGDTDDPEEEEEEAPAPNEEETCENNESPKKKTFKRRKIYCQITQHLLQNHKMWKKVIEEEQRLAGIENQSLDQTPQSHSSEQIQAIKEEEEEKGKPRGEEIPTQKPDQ
Sequence of Serine/threonine-protein kinase Nek5 (Homo sapiens) (Q6P3R8 whole entry): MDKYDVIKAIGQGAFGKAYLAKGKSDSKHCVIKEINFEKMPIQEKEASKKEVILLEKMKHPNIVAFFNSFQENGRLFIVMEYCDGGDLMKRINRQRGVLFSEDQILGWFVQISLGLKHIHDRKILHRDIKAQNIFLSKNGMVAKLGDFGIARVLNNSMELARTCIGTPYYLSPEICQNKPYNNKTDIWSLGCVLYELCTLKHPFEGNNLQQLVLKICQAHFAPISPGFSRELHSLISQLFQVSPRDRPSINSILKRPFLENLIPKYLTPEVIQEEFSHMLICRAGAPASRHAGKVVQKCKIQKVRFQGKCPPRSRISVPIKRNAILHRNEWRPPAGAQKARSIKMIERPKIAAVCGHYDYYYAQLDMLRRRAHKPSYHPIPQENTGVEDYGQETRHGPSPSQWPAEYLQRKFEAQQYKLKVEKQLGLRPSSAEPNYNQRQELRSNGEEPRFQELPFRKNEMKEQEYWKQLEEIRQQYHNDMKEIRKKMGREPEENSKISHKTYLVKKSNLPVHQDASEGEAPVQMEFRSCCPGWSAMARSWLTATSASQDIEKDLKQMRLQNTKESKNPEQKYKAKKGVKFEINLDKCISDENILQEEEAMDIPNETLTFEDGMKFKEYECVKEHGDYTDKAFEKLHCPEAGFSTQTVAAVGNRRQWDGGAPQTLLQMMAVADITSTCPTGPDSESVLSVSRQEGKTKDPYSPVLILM
Sequence of 5-hydroxytryptamine receptor 2B (P41595 whole entry): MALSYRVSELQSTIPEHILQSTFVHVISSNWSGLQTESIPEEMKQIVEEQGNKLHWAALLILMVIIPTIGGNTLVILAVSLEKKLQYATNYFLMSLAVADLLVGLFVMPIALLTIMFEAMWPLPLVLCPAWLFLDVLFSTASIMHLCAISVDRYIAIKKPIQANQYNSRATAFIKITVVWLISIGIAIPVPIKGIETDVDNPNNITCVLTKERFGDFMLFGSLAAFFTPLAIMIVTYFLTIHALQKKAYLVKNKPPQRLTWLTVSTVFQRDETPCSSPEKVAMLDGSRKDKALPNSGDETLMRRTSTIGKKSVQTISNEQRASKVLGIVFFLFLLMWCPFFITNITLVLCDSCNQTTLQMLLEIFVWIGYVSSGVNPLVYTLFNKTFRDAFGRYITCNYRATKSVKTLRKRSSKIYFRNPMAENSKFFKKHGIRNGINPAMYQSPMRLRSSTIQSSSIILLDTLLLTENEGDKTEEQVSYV
Sequence of Casein kinase I isoform epsilon (P49674 whole entry, looked up, canonical isoform): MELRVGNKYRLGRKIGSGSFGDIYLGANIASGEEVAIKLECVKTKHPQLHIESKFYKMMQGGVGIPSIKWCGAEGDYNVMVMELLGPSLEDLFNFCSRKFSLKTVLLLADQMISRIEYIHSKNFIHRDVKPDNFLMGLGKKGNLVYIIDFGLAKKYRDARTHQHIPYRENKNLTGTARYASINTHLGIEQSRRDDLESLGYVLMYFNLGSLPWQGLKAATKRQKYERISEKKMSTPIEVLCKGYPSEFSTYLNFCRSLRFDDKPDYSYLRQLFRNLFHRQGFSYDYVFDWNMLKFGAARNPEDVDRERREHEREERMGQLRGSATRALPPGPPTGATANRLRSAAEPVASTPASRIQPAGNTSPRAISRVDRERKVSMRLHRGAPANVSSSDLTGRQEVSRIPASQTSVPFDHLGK
Sequence of Receptor-type tyrosine-protein kinase FLT3 (Homo sapiens), P36888 [UNDEFINED MUTATION] (P36888 whole entry, looked up, change not shown): as the sequence (P36888 whole entry) above
Sequence of Serine/threonine-protein kinase PLK4 (Homo sapiens) (O00444 whole entry, canonical isoform): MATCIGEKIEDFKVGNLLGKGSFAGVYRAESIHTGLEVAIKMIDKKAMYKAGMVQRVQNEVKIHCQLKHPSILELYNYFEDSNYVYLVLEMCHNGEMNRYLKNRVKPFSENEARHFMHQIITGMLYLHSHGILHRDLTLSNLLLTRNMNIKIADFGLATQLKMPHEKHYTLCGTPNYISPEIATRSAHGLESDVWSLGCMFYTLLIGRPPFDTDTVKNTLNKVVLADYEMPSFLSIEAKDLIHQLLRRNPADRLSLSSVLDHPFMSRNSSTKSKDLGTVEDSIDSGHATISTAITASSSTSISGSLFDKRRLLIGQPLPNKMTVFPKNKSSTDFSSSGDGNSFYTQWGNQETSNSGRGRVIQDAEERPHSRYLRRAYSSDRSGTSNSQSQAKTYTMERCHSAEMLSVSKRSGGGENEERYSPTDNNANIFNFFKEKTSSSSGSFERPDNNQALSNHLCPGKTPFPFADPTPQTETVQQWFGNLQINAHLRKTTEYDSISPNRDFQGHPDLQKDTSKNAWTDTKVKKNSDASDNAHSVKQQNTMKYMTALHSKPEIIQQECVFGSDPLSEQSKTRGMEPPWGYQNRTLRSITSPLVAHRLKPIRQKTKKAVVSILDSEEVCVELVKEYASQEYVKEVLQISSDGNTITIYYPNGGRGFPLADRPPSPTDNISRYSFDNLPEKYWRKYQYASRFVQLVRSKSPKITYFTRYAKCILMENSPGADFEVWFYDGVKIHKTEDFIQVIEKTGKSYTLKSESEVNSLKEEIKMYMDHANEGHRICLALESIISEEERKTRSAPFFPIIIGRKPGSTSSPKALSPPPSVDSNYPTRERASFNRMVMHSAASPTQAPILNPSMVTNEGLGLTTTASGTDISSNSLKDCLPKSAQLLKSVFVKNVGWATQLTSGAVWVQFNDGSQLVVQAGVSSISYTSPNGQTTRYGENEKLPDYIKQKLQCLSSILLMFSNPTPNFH

With `Cc1nc(Cc2cccc(C(F)(F)F)c2)sc1-c1ccc(C(N)=O)nc1` the % of inhibition [1] was 34%, the % of control [2] was 0% and the % of control [3] was 28%. For the same compound, the % of control [4] was 15%, the % of control [5] was 35% and the % of control [6] was 0.3%.
With `CCOc1cc(C(=O)N2CCC(N3CCN(C)CC3)CC2)ccc1Nc1ncc2c(n1)N(C1CCCC1)c1ccccc1C(=O)N2C` the % of control [7] was 3.6% and the % of control [8] was 5.1%.
In the case of `Nc1ccc(C(=O)Nc2cccc(-c3nc(N4CCOCC4)c4oc5ncccc5c4n3)c2)cn1`, the % of control [9] is reported as 9.8%.
`CC(C)Oc1ccc(-c2nn([C@@H](C)c3oc4ccc(F)cc4c(=O)c3-c3cccc(F)c3)c3ncnc(N)c23)cc1F` was tested, and the % of control [10] was 39%.
In the case of `Cc1cc(-n2nc(Cc3cc(F)cc(C(F)(F)F)c3)nc2C)ccc1C(N)=O`, the % of control [11] is reported as 49% and the inhibition [12] is reported as 21%.
`Cn1nc(C(F)(F)F)cc1-c1cnc(N2CCc3cc(S(=O)(=O)Nc4c(F)cc(Cl)cc4F)cc(N4CCCC4=O)c32)nc1` gave a % of control [13] of 34%, a % of control [14] of 32% and a % of control [15] of 12%.
Compound `CC(C)(O)CNc1ncc(-c2ccnc(Nc3ccnc(Cl)c3)n2)c(CC2CC2)n1` has a % of activity remaining [16] of 45%, a % of activity remaining [17] of 32% and a % of activity remaining [18] of 40%.
In the case of `Cc1sc2c(c1C)C(c1ccc(Cl)cc1)=N[C@@H](CC(=O)OC(C)(C)C)c1nnc(C)n1-2`, the % bound fraction [19] is reported as 48% and the dTm (CREB-binding protein) is reported as 1.04 K.
Compound `CC(=O)c1cc(-c2cc(C(=O)NC3CC3)ccc2C)c2ncccn12` has a % of control [20] of 28%, a % of control [21] of 14% and a % of control [22] of 47%. For the same compound, the % of control [23] was 48% and the % of control [24] was 25%.
In the case of `O=C(c1ccc(C(=O)N2CCC(N3CCCC3)CC2)c(Nc2ccccc2)c1)N1CCC(N2CCCC2)CC1`, the % of control [25] is reported as 64%.
